# In patent US6368814B1, “Tricyclic antidepressant derivatives and immunoassay” (Roche Diagnostics Corporation, priority 2000, dated 2002):
# Tests used:
# [1] = tested on: Monoclonal Antibody TCA 1.1; assay: Competitive microplate ELISA of imipramine with monoclonal antibody TCA 1.1, wells coated with compound 11 conjugate; type: binding, mouse; details: compound 11 coated wells, mAb TCA 1.1
# Procedure: (§1) To analyze the sera for antibody content an ELISA assay using the cognate antigen linked to a different protein (2-carboxypropyl-dihydroamitriptyline-BSA) (compound 11) was used. This antigen was diluted to 5 μg/ml in 0.1 M carbonate buffer, pH 9.5. A volume of 100 μl of this antigen solution was pipetted into wells of a polystyrene 96-well microplate (Costar, Cambridge, Mass.). This was incubated in a plastic bag at 37° C. for 1 hour. The solutions were then removed via suction, and wells were filled with a blocking solution. This consisted of gelatine hydrolysate, 1%, sucrose, 2%, Tris, 0.15 M, pH 7.4 (all reagents from Sigma Chemicals). This was allowed to block the plates for 1 hour at room temperature in plastic bags. Wells were then emptied via suction.
# (§2) Dilutions of the sera were prepared by transferring 1 μl to a glass test tube containing 1 ml of phosphate buffered saline, with 0.1% Tween 20 (PBS-T). One hundred and fifty microliters of this dilution of each serum were transferred to wells in Row A of a polyvinyl chloride microplate. All other wells were filled with 100 μl of PBS-T. Serial three-fold dilutions were prepared by transferring 50 μl from Row A to Row B using a multi-channel micropipettor. Mixing was accomplished by re-pipetting 3 times. This was repeated from Row B to C and so on down each column of wells.
# (§3) Once all dilutions were prepared, 95 μl of each, starting with Row H, was transferred to the same row in the coated plate. The plate was placed in a Ziploc plastic bag with a damp piece of paper towel and incubated at 37° C. for one hour. Following incubation, the wells were washed four times manually with 300 μl aliquots of PBS-T. A 1:5000 dilution of goat anti-mouse IgG AM-HRP conjugate (Kirkegaard & Perry, Gaithersburg, Md.) was prepared in PBS-T. 100 μl of this was then pipetted into each well, the plate again incubated as above. The plate was then washed 6 times with 300 μl of PBS-T manually, and 100 μl of K-Blue substrate (Neogen, Lexington, Ky.) was added to each well. This was allowed to develop in the dark for 5 minutes, and the reaction was then stopped by the addition of 100 μl of a 2 M phosphoric acid solution. The optical densities of the wells were read using a Molecular Devices Tmax plate reader and a Macintosh computer.
# (§4) Hybridoma clone TCA 1.1 was placed into high-density culture and supernatant harvested. This preparation was preserved by the addition of thimerosal to a concentration of 0.02%. Antibody content was evaluated by a titer experiment in which varying dilutions of supernatant were placed into microplate wells coated with a constant amount of antigen conjugate.
# (§5) Incubation for 1 hour at 37° C. was followed by the same procedure as for the screening assays. Optical densities were plotted versus the final concentration of imipramine calculated as a molar (gram-molecular weight drug per liter) concentration.
# [2] = tested on: Monoclonal Antibody TCA 1.1; assay: Competitive microplate ELISA of imipramine with monoclonal antibody TCA 1.1, wells coated with compound 27 conjugate; type: binding, mouse; details: compound 27 coated wells, mAb TCA 1.1
# Procedure: as §1, §2, §3
# This animal received a booster immunization of 100 μg of antigen in incomplete Freund's adjuvant four days before the fusion was performed. The myeloma cell line F0 (ATCC, Manassas, Va.) was used for the fusion. The fusion was performed by the method of de St Groth and Scheidegger, Journal of Immunol. Meth. 35, 1-21, 1980. Ten days later hybrid cell cultures were ready for screening.
# as §4, §5
# [3] = imipramine final concentration 1.98 × 10^−6 molar
# [4] = imipramine final concentration 2.2 × 10^−7 molar
# [5] = imipramine final concentration 2.45 × 10^−8 molar
# [6] = imipramine final concentration 6.6 × 10^−7 molar
# [7] = imipramine final concentration 7.43 × 10^−8 molar
# [8] = imipramine final concentration 8.15 × 10^−9 molar
smiles,measurement,setting,value
"CN(C)CCCN1c2ccccc2CCc2ccccc21 [Imipramine, imipramine]",OD450 compound 11,[1]; [3],0.056
same,OD450 compound 11,[1]; [4],1.35
same,OD450 compound 11,[1]; [5],2.325
same,OD450 compound 11,[1]; [6],0.541
same,OD450 compound 11,[1]; [7],1.95
same,OD450 compound 11,[1]; [8],2.6
same,OD450 compound 27,[2]; [3],0.037
same,OD450 compound 27,[2]; [4],0.276
same,OD450 compound 27,[2]; [5],1.719
same,OD450 compound 27,[2]; [6],0.038
same,OD450 compound 27,[2]; [7],1.124
same,OD450 compound 27,[2]; [8],2.434
